Test results reported in PMC7157763, “Synergy between Cell Surface Glycosidases and Glycan-Binding Proteins Dictates the Utilization of Specific Beta(1,3)-Glucans by Human Gut Bacteroides” (mBio, 2020).

What was measured:
BuGH3 [1] = target: T1, BuGH3 (Bacteroides uniformis, UniProt A0ABC9NEJ2); assay: continuous glucose release assay (hexokinase kit); format: biochemical; details: oligosaccharide hydrolysis, exo-acting
T1 construct: gene BACUNI_01484; signal peptide and lipidation Cys excluded; N-terminal His6 tag (pET28a); E. coli BL21(DE3)
T1 sequence (A0ABC9NEJ2 20-750): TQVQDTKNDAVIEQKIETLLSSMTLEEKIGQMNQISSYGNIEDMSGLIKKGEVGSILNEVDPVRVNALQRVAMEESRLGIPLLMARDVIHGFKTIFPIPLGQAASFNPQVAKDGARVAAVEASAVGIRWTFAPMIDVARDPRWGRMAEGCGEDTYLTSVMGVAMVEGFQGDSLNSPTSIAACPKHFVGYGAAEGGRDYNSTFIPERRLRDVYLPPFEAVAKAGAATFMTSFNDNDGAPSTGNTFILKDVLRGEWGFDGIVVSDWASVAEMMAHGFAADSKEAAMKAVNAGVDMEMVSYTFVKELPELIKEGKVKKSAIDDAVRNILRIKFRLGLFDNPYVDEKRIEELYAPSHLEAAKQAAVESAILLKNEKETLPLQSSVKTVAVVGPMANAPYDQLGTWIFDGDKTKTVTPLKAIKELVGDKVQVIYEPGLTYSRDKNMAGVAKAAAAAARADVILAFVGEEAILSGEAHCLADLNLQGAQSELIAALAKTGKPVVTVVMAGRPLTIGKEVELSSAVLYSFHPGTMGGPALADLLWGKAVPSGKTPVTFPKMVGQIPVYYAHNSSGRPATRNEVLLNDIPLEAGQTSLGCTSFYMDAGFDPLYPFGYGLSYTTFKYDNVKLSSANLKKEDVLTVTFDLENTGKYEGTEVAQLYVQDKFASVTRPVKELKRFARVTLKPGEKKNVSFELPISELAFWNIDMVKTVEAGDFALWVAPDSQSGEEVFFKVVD

BuGH3 [2] = target: T1, BuGH3; assay: continuous glucose release assay (hexokinase kit); format: biochemical; details: oligosaccharide hydrolysis, exo-acting; remark: listed apart in the source
BuSGBP-B = target: T2, BuSGBP-B (Bacteroides uniformis, UniProt A0ABC9NE57); assay: isothermal titration calorimetry; format: binding; details: 25 °C; single-site model
T2 construct: gene BACUNI_01487; signal peptide and lipidation Cys excluded; N-terminal His6 or His6-GST tag (pMCSG53 or pMCSG-GST); E. coli BL21(DE3)
T2 sequence (A0ABC9NE57 22-457): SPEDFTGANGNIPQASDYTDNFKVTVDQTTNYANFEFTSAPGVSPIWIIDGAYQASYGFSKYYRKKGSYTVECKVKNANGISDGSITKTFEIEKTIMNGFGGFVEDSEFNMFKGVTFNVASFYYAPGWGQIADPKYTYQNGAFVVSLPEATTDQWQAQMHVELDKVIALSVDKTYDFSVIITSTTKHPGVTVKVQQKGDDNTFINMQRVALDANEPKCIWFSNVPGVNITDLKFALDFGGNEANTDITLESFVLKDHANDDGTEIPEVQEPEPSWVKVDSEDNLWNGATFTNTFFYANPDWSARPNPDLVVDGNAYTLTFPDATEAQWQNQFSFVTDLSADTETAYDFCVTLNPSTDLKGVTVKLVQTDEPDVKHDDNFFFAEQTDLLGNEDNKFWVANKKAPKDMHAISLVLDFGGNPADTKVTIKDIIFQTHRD

BuGH158 = target: T3, BuGH158 (Bacteroides uniformis, UniProt A0ABC9NDZ5); assay: 1H-NMR of hydrolysis (anomer stereochemistry); format: biochemical; details: 50 mM sodium phosphate pH 7.0 in D2O; 20 μM enzyme, 10 mM substrate; retaining
T3 construct: gene BACUNI_01485; signal peptide and lipidation Cys excluded; N-terminal His6 tag (pMCSG53); E. coli BL21(DE3)
T3 sequence (A0ABC9NDZ5 19-429 limits assumed): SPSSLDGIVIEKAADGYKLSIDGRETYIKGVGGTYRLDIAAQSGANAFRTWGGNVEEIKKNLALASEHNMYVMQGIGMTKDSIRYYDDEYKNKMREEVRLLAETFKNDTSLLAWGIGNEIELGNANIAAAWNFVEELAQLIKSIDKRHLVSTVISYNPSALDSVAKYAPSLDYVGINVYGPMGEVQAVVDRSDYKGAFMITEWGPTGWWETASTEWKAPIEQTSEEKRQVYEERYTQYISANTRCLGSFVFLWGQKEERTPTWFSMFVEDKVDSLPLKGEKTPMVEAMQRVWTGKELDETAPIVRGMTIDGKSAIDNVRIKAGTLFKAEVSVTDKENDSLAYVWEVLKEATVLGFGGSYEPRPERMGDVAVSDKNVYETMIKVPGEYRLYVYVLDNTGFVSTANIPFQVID

OC[C@H]1O[C@@H](OC[C@H]2OC(O)[C@H](O)[C@@H](O)[C@@H]2O)[C@H](O)[C@@H](O)[C@@H]1O (stereo partly shown) [G6G, gentiobiose]
kcat/Km (BuGH3 [1]): kcat/Km value for laminaribiose (G3G) over cellobiose (G4G) and gentiobiose (G6G)

OC[C@H]1O[C@@H](O[C@@H]2[C@@H](O)[C@H](O[C@@H]3[C@@H](O)[C@H](O[C@H]4[C@H](O)[C@@H](CO)OC(O)[C@@H]4O)O[C@H](CO)[C@H]3O)O[C@H](CO)[C@H]2O)[C@H](O)[C@@H](O)[C@@H]1O (stereo partly shown) [G3G3G3G, laminaritetraose]
Km (BuGH3 [2]): after which Km values leveled off
Ka (BuSGBP-B): affinity increased with degree of polymerization

OC[C@H]1O[C@@H](O[C@H]2[C@H](O)[C@@H](O)C(O)O[C@@H]2CO)[C@H](O)[C@@H](O)[C@@H]1O (stereo partly shown) [G4G, cellobiose]
kcat/Km (BuGH3 [1]): kcat/Km value for laminaribiose (G3G) over cellobiose (G4G) and gentiobiose (G6G)

OC[C@H]1O[C@@H](O[C@H]2[C@H](O)[C@@H](CO)OC(O)[C@@H]2O)[C@H](O)[C@@H](O)[C@@H]1O (stereo partly shown) [G3G, laminaribiose]
Km (BuGH3 [2]): Km values decreased between the di- and trisaccharide

O=[N+]([O-])c1ccc(O[C@@H]2O[C@H](CO)[C@@H](O)[C@H](O[C@@H]3O[C@H](CO)[C@@H](O)[C@H](O)[C@H]3O)[C@H]2O)c(Cl)c1 [G3G-CNP, 2-chloro-4-nitrophenyl laminaribioside]
1H-NMR of hydrolysis (anomer stereochemistry) (BuGH158): NMR analysis of the hydrolysis of 2-chloro-4-nitrophenyl laminaribioside (G3G-CNP)

OC[C@H]1O[C@@H](O[C@@H]2[C@@H](O)[C@H](O[C@H]3[C@H](O)[C@@H](CO)OC(O)[C@@H]3O)O[C@H](CO)[C@H]2O)[C@H](O)[C@@H](O)[C@@H]1O (stereo partly shown) [G3G3G, laminaritriose]
Km (BuGH3 [2]): Km values decreased between the di- and trisaccharide
Ka (BuSGBP-B): The smallest laminari-oligosaccharide bound by BuSGBP-B was the trisaccharide (G3G3G)

OC[C@H]1O[C@@H](O[C@@H]2[C@@H](O)[C@H](O[C@@H]3[C@@H](O)[C@H](O[C@@H]4[C@@H](O)[C@H](O[C@H]5[C@H](O)[C@@H](CO)OC(O)[C@@H]5O)O[C@H](CO)[C@H]4O)O[C@H](CO)[C@H]3O)O[C@H](CO)[C@H]2O)[C@H](O)[C@@H](O)[C@@H]1O (stereo partly shown) [G3G3G3G3G, laminaripentaose]
Km (BuGH3 [2]): after which Km values leveled off
Ka (BuSGBP-B): affinity increased with degree of polymerization
